Assay results as given in patent US12178846B2, “Methods of using gap junctions as therapeutic targets for the treatment of degenerative disorders of the retina” (The Research Foundation for The State University of New York, priority 2014, dated 2024).

Columns and labels:
[1] = test system: cells in the GCL of mouse retinas; assay: NMDA-induced excitotoxic cell death in the GCL of retina-eyecups; type: cell-based
Description: All animal procedures were in compliance with the NIH Guide for the Care and Use of Laboratory Animals and approved by the Institutional Animal Care and Use Committees at SUNY College of Optometry. Experiments were performed on retinas of wild type (WT), connexin knockout (KO) mice (Cx36^−/−, Cx45^−/−, and Cx36^−/−/45^−/− dKO), and their heterozygous (Het) littermates. The methods used to impale and label neurons have been described previously (Hu et al., J Neurosci 23:[…] (2003); Völgyi et al., Journal of Comparative Neurology 512:664-687 (2009)). Briefly, flattened retina-eyecups were placed in a superfusion chamber, which was mounted on the stage of a BX51WI light microscope (Olympus) within a light-tight Faraday cage. […] The retina-eyecups were superfused with a modified, oxygenated Ames medium maintained at 35° C.
Various methods were employed to produce cell death. (1) Single cell apoptosis: CytC was injected into individual RGCs or Müller cells for 15 minutes after which retinas were incubated for 4 hours in oxygenated Ames medium before fixation. After streptavidin histology, apoptotic cells were detected with an anti-active caspase 3 antibody or with Terminal deoxynucleotidyl transferase dUTP nick end labeling (TUNEL) staining. (2) Excitotoxicity: To assess the contribution of GJs to cell death within populations of RGCs and amacrine cells we conducted parallel experiments in which retinas were preincubated for 20 minutes in normal Ames medium or in one containing the GJ blockers meclofenamic acid (MFA; 50 μM) or 18-beta-glycyrrhetinic acid (18Beta-GA; 25 μM). Both control and drug-treated retinas were then exposed for 1 hour to NMDA (100-300 μM) to induce excitotoxicity followed by 4 hours in the control Ames solution. (3) Retinal ischemia: Transient in vivo retinal ischemia was induced by introducing into the anterior chamber a 33-gauge needle attached to a saline-filled reservoir (0.9% sodium chloride) that was raised above the animal so as to increase intraocular pressure (IOP) to a level […]. MFA (2 μl, 500 μM) was administered intravitreally either 30 minutes before or 3 and 24 hours following the ischemic insult. […]
Apoptotic and necrotic cell death were assessed by cell counts following: (1) staining with Live/Death Viability Assay (calcein AM/ethidium homodimer (EthD) (Invitrogen); (2) TUNEL, or, (3) labeling for activated caspase 3. For population studies, dead cells were counted manually within 500×500 μm areas (5 areas per retina) from micrographs of whole-mounts using images acquired by confocal microscope. Nuclear cell counts were made per unit length (500 μm) of frozen retinal cross-sections labeled with propidium iodide (2 μg/ml).

[2] = test system: RGCs in microbead-injected eyes; assay: Microbead-induced experimental glaucoma; type: in vivo, mouse
Description: Experimental glaucoma in mice is induced by IOP elevation achieved by intracameral injections of 10 μm polystyrene microbeads (Invitrogen) as previously described (Chen H, et al., Invest Ophthalmol Vis Sci. 52:36-44 (2011)). The intracameral injections are made unilaterally with 2 μl of microbead suspension containing ˜7.2×106 beads using a glass micropipette attached to a microliter syringe. An equivalent volume of phosphate-buffered saline (PBS) is injected in contralateral eyes to serve as a control. Measurements of IOP are made with the commercially-available Tonolab tonometer (Colonial Medical Supply) and are performed weekly for up to 8 weeks after the microbeads injection. Measurements are made between […] and 12 PM, to minimize the effect of diurnal IOP variations. Six IOP measurements are made at each interval and averaged. Experimental glaucoma was induced by intracameral injections of polystyrene microbeads (Chen H, et al., Invest Ophthalmol Vis Sci. 52:36-44 (2011)) in one eye of wild type (WT) mice, connexin knockout (KO) mice and their […] (HET) control littermates, with sham injection of the second eye as control. IOP measurements were performed weekly and animals were sacrificed at 1, 4, or 8 weeks after initial bead injection. To access cell loss, RGCs and coupled ACs were retrogradely labeled with optic nerve injection of Neurobiotin and vertical retinal sections were counterstained with DAPI to determine overall nuclear counts. RGCs were also labeled by Brn3a antibody for identification. In addition to cell counts, overall retinal damage was assessed by GFAP expression. In some experiments gap junctions were blocked with meclofenamic acid (MFA) intravitreal weekly injections or genetically ablated in connexin KO mice (Cx36^−/−, Cx45^−/−, and Cx36^−/−/Cx45^−/− mice). Data are presented as mean±standard mean error. […] Statistical comparisons were assessed using Student's t-test. […]

RGC counts, MFA alone ([2]; injection of MFA alone in control eyes): no detectable effect
SMILES: Cc1ccc(Cl)c(Nc2ccccc2C(=O)O)c1Cl [MFA, meclofenamic acid]
cell viability, blocker alone [1]: did not affect cell viability
cell death in the GCL induced by excitotoxicity ([1]; retinas preincubated in 18Beta-GA 25 μM or MFA 50 μM, then NMDA 100-300 μM 1 h, vs NMDA alone, p<0.001): significantly reduced
RGC cell counts ([2]; MFA (50 μM) before and after bead injection, 8 weeks, control 50±1, untreated bead-injected 33±1, p>0.1 vs control): 47±4
loss of cells (RGC+dAC) in the GCL ([2]; intravitreal MFA, microbead-injected eyes, 8 weeks): prevents loss of cells in GCL
